Measurements as given in patent publication US10954306B2 (priority 2015, dated 2021).
Where no end group is shown, it is not given here.

Experiments:
[1] = test system: antibody (polyclonal anti-T14); test: ELISA motif determination with linear peptide variants; format: binding, rabbit; conditions: 100 nM peptide, FIGS. 5-10
Description: The standard curves and the samples were run in triplicate. For the detection of T14, Pep4, T15 and amyloid, 8 nanomolar concentrations of each were used for the ELISA. On the other hand, for the motif determination experiment, only one concentration of each of the peptide variants was used of 100 nM. For the detection of T14 on rat brain samples, different dilutions of the protein were used. […] The standard curve for determination of T14 peptide in brain tissue and the brain tissue samples were diluted in PBS buffer. The standard curves ranged from 8 to 100 nM of T14. Briefly, 96-well immunoplates (NUNC) were coated with 100 μl/well of sample or standard T14, covered with parafilm and incubated overnight at 4° C. The following day the sample was removed by flicking the plate over a sink with running water, and 200 μl of the blocking solution containing 2% Bovine Serum Albumin (BSA) in Tris-Buffered Saline and Tween 20 (TBS-T) was added and incubated for 4 h at room temperature. Blocking solution was then removed and 100 μl of antibody, diluted in blocking solution to 1 μg/ml, was added and incubated overnight at 4° C. The primary antibody was removed the next day and wells were washed 3 times with 200 μl of TBS-T. After, 100 μl of secondary antibody diluted in blocking solution to […] was added and incubated for 2 h at room temperature; the plate was covered with parafilm during all incubations. After 2 h, the plate was washed 4 times with TBS-T. The addition of 3,3,5,5-tetramethylbenzidine started the colour reaction.
The inventors investigate the immunospecificity of the antibody of the invention by carrying out binding experiments with a series of different linear peptides.

[2] = T14 aggregation by WB and ELISA; format: physicochemical; conditions: 200 μM, neutralised PBS, 0-4 hours at 25° C.
Description: Exogenous T14 stock solution (20 mM) solution was created by resuspension in distilled water. Subsequently, stock solution was diluted to a working stock solution (400 μM) with PBS (pH 10.5). Aggregation was initiated by neutralising the working stock solution by adding PBS (pH 5) to create a final concentration of 200 μM, which was incubated for 0, 1, 2, 3, 4 hours at 25° C. Moreover, T14 monomer control was created by diluting the working stock with PBS (pH 10.5) to 200 μM and incubating at 25° C. for 4 hours. A further no peptide control was created by mixing together pH 5 and pH 10.5 PBS and incubating at 25° C. for 4 hours. WB (A) and ELISA (B) were then conducted on the above T14 aggregation samples and quantified;

rat brain slices = conditions: cited from earlier work
[3] = test system: compensatory AChE release; conditions: cited from earlier work
α7 nicotinic-receptor = α7 nicotinic-receptor (Homo sapiens, UniProt P36544); conditions: cited from earlier work
Chain of α7 nicotinic-receptor (P36544 23-502): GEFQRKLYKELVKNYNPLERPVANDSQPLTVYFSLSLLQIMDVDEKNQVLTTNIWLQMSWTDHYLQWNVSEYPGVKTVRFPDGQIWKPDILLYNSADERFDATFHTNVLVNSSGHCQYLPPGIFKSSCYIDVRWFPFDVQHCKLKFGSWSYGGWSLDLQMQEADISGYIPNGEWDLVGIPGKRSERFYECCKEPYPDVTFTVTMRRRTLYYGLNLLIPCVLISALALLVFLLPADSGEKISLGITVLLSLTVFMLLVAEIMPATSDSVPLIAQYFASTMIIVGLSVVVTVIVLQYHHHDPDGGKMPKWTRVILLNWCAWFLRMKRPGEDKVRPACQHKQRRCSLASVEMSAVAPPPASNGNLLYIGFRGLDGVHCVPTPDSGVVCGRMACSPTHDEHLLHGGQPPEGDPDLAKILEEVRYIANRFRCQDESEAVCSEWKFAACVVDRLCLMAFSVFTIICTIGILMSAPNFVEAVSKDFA

AEFHRWSSYMVHWK [Peptide T14]
recognition of the peptide by the antibody (ELISA) [1]: strongly binds
T14 aggregation [2]: grows exponentially
T14 monomer pool [2]: remains unchanged

EFHRWSSYMVHWK [Peptide 1305]
recognition of the peptide by the antibody (ELISA) [1]: strongly binds

FHRWSSYMVHWK [Peptide 1206]
recognition of the peptide by the antibody (ELISA) [1]: strongly binds

HRWSSYMVHWK [Peptide 1107]
recognition of the peptide by the antibody (ELISA) [1]: strongly binds

NBP14 (AEFHRWSSYMVHWK; not fully specified)
effect on Ca2+ concentrations (rat brain slices; given alone): no significant effect
effect on Ca2+ concentrations in presence of T30 (rat brain slices; with T30): blocks the effects of T30
compensatory AChE release induced by the toxicity of linear T14 and T30 [3]: blocks
protection of cells from linear T14, T30 and β-amyloid toxicity (α7 nicotinic-receptor): protect cells
